Measured values as given in patent publication US6204384A, “Substituted 3-amino-2-hydroxyphenylacetamide derivatives as enzyme inhibitors (II)” (Corvas International, Inc., priority 1997, dated 2001).

Experiments:
[1] = system: thrombotic occlusion of the carotid artery; assay: Rat model of FeCl3-induced platelet-dependent arterial thrombosis; format: in vivo; settings: dose that prevents complete thrombotic occlusion in 50% of animals tested, read-out: ED50 for thrombus prevention in the FeCl3 model of arterial thrombosis
Protocol: The antithrombotic (prevention of thrombus formation) properties of compounds of the present invention are evaluated using the following established experimental model of acute vascular thrombosis which is a rat model of FeCl3 -induced platelet-dependent arterial thrombosis.
This is a well characterized model of platelet dependent, arterial thrombosis which has been used in the evaluation potential antithrombotic compounds such as direct thrombin inhibitors. See, Kurz, K. D., Main, B. W., and Sandusky, G. E., Thromb. Res., 60: 269-280 (1990). In this model a platelet-rich, occlusive thrombus is formed in a segment of the rat carotid artery treated locally with a fresh solution of FeCl3 absorbed to a piece of filter paper. […] The effect of a test compound on the incidence of occlusive thrombus formation following the application of the […] is monitored by ultrasonic flowtometry and is used as the primary end point. […]
Following surgery the animals are randomized in either a control (saline) or treatment group with test compound, with at least 6 animals per group per dose. […] Blood pressure, blood flow, heart rate, and respiration are monitored for 60 minutes.
The incidence of occlusion (defined as the attainment of zero blood flow) is recorded as the primary end point. […]

[2] = literature; cited from earlier work
[3] = system: trypsin, plasmin and kallikrein; settings: literature, inhibiting trypsin; cited from earlier work
[4] = literature; cited from earlier work; remark: listed apart in the source

CC1CNc2c(cccc2S(=O)(=O)N[C@@H](CCCNC(=N)N)C(=O)N2CC[C@@H](C)C[C@@H]2C(=O)O)C1 (stereo partly drawn) [Argatroban, 2R,4R-4-methyl-1-[N-2-(3-methyl-1,2,3,4-tetrahydro-8-quinolinesulfonyl)-L-argininy]-2-piperdinecarboxylic acid]
ED50 [1]: 3.8 mg/kg

N=C(N)c1ccc(CC(=O)C(=O)O)cc1 [APPA, 4-amidinophenylpyruvic acid]
pharmacokinetics, in words [2]: favourable pharmacokinetics
selectivity, in words [3]: non-selective, inhibiting trypsin, plasmin and kallikrein
toxicity, in words [4]: low toxicity
